Test systems include U251 CNS; OVCAR-5 ovarian; NCI/ADR-RES ovarian; UO-31 renal; TK-10 renal; MDA-MB-231 breast; HCC-2998 colon; NCI-H460 lung; SN12C renal; LOX IMVI melanoma.
Common to all, as to experiment: NCI-60 cell line screen, 48 h

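Five compound concentrations were applied to cells in 96-well plates for 48 hours; endpoints were derived by simple linear interpolation of the resulting dose-response curve. The concentration for 50% growth inhibition is given as GI50. Definition used: TGI = concentration required for complete inhibition of growth.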

`N=C(N)c1ccc(N=Nc2c(O)c(C(=O)Nc3ccccc3)cc3ccccc23)cc1`: the TGI with U251 CNS is greater than 63.1 µM; with OVCAR-5 ovarian it was greater than 62.4 µM; in the assay on NCI/ADR-RES ovarian, greater than 100 µM; in the assay on UO-31 renal, greater than 100 µM; with TK-10 renal, greater than 68 µM; in the assay on MDA-MB-231 breast it was 22.4 µM. The TGI in the assay on HCC-2998 colon was greater than 59.7 µM; with NCI-H460 lung it was greater than 75.3 µM; with SN12C renal, 54.5 µM.

In the case of `Cc1cc(C)c(C2=NO[C@@H]3[C@H]2C(=O)C=C2N(Cc4ccccc4)CCO[C@@]23O)c(C)c1`, the TGI with U251 CNS, with OVCAR-5 ovarian, in the assay with NCI/ADR-RES ovarian, with LOX IMVI melanoma, in the assay on UO-31 renal and in the assay with HCC-2998 colon was greater than 100 µM in each case. Also, the TGI in the assay on NCI-H460 lung and in the assay with SN12C renal was greater than 100 µM in each case.

In the case of `CCOC(=O)CCC(C(=O)OCC)n1nnc2cc(Nc3c(C)[n+]([O-])c4cc(Cl)ccc4[n+]3[O-])ccc21` (stereo not drawn), the TGI with U251 CNS, with OVCAR-5 ovarian, in the assay on NCI/ADR-RES ovarian, in the assay on LOX IMVI melanoma, in the assay on UO-31 renal and in the assay on TK-10 renal was greater than 100 µM throughout. In addition, the TGI in the assay with NCI-H460 lung and with SN12C renal was greater than 100 µM each time.

On to `C[C@]12CC[C@H]3[C@@H](CCC4=C/C(=N/OCCN5CCCCC5)CC[C@@]43C)[C@@H]1CC[C@@H]2O`, for which the TGI in the assay with U251 CNS amounted to 27.1 µM; in the assay on OVCAR-5 ovarian it was 40.7 µM; with NCI/ADR-RES ovarian, 54.4 µM; in the assay on LOX IMVI melanoma it was 57.3 µM; with UO-31 renal, 24.7 µM; in the assay on TK-10 renal it was 35 µM. For the same molecule, the TGI with MDA-MB-231 breast was 50.6 µM; with HCC-2998 colon it was 27.4 µM; with SN12C renal, 38.2 µM.

As to `CCOC(=O)/C(=C/c1cn(C(C)=O)c2ccccc12)P(=O)(OC)OC`, the TGI is greater than 100 µM in the assay on U251 CNS; greater than 100 µM with OVCAR-5 ovarian; greater than 100 µM with NCI/ADR-RES ovarian; 79.2 µM in the assay on LOX IMVI melanoma; greater than 100 µM with TK-10 renal; greater than 100 µM with MDA-MB-231 breast. In addition, the TGI in the assay on NCI-H460 lung is 79.7 µM; in the assay on SN12C renal it was greater than 100 µM.

With `COc1cc2c(cc1OCCN1CCN(CCOc3cc4c(cc3OC)C(=O)N3CCC[C@H]3C=N4)CC1)N=C[C@@H]1CCCN1C2=O`, the TGI was greater than 89.7 µM in the assay on U251 CNS; 63.7 µM with OVCAR-5 ovarian; greater than 100 µM in the assay with NCI/ADR-RES ovarian; greater than 100 µM in the assay on LOX IMVI melanoma; greater than 73.7 µM in the assay on UO-31 renal; 87.8 µM with TK-10 renal. The TGI in the assay on MDA-MB-231 breast is 54.5 µM; in the assay with NCI-H460 lung it was greater than 100 µM; with SN12C renal it was greater than 100 µM. The GI50 with LOX IMVI melanoma was greater than 100 µM.

Consider `O=c1[nH]c2ccccc2c(=O)n1/N=C\c1ccccc1O`, for which the TGI in the assay with U251 CNS, in the assay on OVCAR-5 ovarian, with LOX IMVI melanoma, in the assay on UO-31 renal, with TK-10 renal and in the assay on MDA-MB-231 breast was greater than 100 µM each time. Further, the TGI with NCI-H460 lung and with SN12C renal was greater than 100 µM each time.

`O=C(Nc1nnc(-c2ccccc2)o1)C(SC(=S)N1CCCC1)c1ccccc1` (stereo not drawn): the TGI in the assay with U251 CNS is greater than 100 µM; with OVCAR-5 ovarian it was greater than 100 µM; in the assay on NCI/ADR-RES ovarian it was 60.1 µM; in the assay with LOX IMVI melanoma it was 41.4 µM; in the assay with UO-31 renal, 57.8 µM; with TK-10 renal it was greater than 100 µM. In addition, the TGI is greater than 100 µM in the assay on MDA-MB-231 breast, 62.3 µM in the assay on NCI-H460 lung and greater than 100 µM with SN12C renal.

With `Cc1cc(C)n(C(=CC(=O)C(Cl)Cl)n2nc(C)cc2C)n1`, the TGI was 20.4 µM in the assay on U251 CNS; 14.5 µM with OVCAR-5 ovarian; 10.7 µM with NCI/ADR-RES ovarian; 3.67 µM in the assay on LOX IMVI melanoma; 27.6 µM in the assay on UO-31 renal; 15.1 µM in the assay with TK-10 renal. Also, the TGI was found to be 12.3 µM with MDA-MB-231 breast and 34.1 µM in the assay on NCI-H460 lung.

As for `FC(F)(Sc1ncccn1)c1nc2ccccc2o1`, the TGI with U251 CNS, with OVCAR-5 ovarian, in the assay with NCI/ADR-RES ovarian, in the assay with UO-31 renal, with TK-10 renal and in the assay with MDA-MB-231 breast was greater than 100 µM in each case. Besides, the TGI in the assay on HCC-2998 colon, in the assay with NCI-H460 lung and in the assay with SN12C renal was greater than 100 µM each time.

In the case of `CC(C)(C)c1cc(C(C)(C)C)c2sc(=O)oc2c1O`, the TGI with U251 CNS was determined as 27.8 µM; with OVCAR-5 ovarian, 33.4 µM; in the assay on NCI/ADR-RES ovarian, 30.1 µM; in the assay with LOX IMVI melanoma it was 27.7 µM; in the assay on UO-31 renal it was 23.8 µM; in the assay with TK-10 renal, 24.1 µM. The TGI in the assay on MDA-MB-231 breast came out at 33.4 µM; in the assay with NCI-H460 lung, 18.8 µM; in the assay on SN12C renal, 27.1 µM.

For `CCOC(=O)CC1C(C(=O)OCC)=Cn2c([nH]c3cccc4cccc2c43)=C1C(=O)OCC` (stereo not drawn), the TGI with U251 CNS, in the assay on OVCAR-5 ovarian, in the assay with NCI/ADR-RES ovarian, in the assay on LOX IMVI melanoma, in the assay with UO-31 renal and with TK-10 renal was greater than 100 µM throughout. Besides, the TGI in the assay on HCC-2998 colon, in the assay with NCI-H460 lung and with SN12C renal was greater than 100 µM throughout.

Turning to `c1ccc(CN2CCC(CNc3ncnc4ccccc34)C2)cc1` (stereo not drawn), the TGI in the assay with U251 CNS, with OVCAR-5 ovarian, with NCI/ADR-RES ovarian, in the assay with LOX IMVI melanoma, in the assay on UO-31 renal and in the assay on TK-10 renal was greater than 100 µM throughout. In addition, the TGI with MDA-MB-231 breast, with NCI-H460 lung and in the assay with SN12C renal was greater than 100 µM throughout.

As for `CCOC(=O)/C=C(/OCC)[C@@H]1C(C(=O)c2ccc(Cl)cc2)[C@@H]1/C(=C\C(=O)OCC)OCC` (stereo partly drawn), the TGI in the assay with U251 CNS is greater than 100 µM; with OVCAR-5 ovarian, greater than 100 µM; in the assay on NCI/ADR-RES ovarian it was greater than 34 µM; in the assay on LOX IMVI melanoma, greater than 100 µM; with UO-31 renal, greater than 91 µM; in the assay on TK-10 renal, 43.6 µM. In addition, the TGI in the assay on MDA-MB-231 breast, in the assay on NCI-H460 lung and in the assay with SN12C renal was greater than 100 µM each time.

As for `Nc1ncnc2c1ncn2C1C(O)C=C(CO)C1O` (stereo not drawn), the TGI with NCI/ADR-RES ovarian, with LOX IMVI melanoma, with UO-31 renal, with HCC-2998 colon, with NCI-H460 lung and in the assay on SN12C renal was greater than 625 µM each time.

Source of the values: PubChem BioAssay (NCI).
